According to article PMC10482691, “LTP induction by structural rather than enzymatic functions of CaMKII” (Nature, 2023):
“And” between values parts separate entries of the source, which are not always exact repeats. Identical values can stand only once.

How the values were obtained:
Ret(h) = Ret(h) (Homo sapiens, UniProt P07949); assay: Kinase selectivity panel (residual activity at 1 μM); format: biochemical; details: inhibitor at 1 μM; read-out: residual kinase activity in % of maximal activity
ROCK-II(h) = ROCK-II(h) (Homo sapiens, UniProt O75116); assay: as above; format: biochemical; details: inhibitor at 1 μM; read-out: residual kinase activity in % of maximal activity
[1] = test system: CA3–CA1 LTP in CaMKII T286A mutant slices; assay: LTP field recordings in hippocampal slices of T286A mice; format: cell-based, mouse; details: for fEPSP slope (normalized to baseline): individual slices, sheet 3c
Protocol: WT and mutant mouse hippocampal slices were prepared using P56–P70 mice. Isoflurane-anesthetized mice were rapidly decapitated, and the brain was dissected in an ice-cold high-sucrose solution containing 220 mM sucrose, 12 mM MgSO4, 10 mM glucose, 0.2 mM CaCl2, 0.5 mM KCl, 0.65 mM NaH2PO4, 13 mM NaHCO3 and 1.8 mM ascorbate. Transverse hippocampal slices (400 μm) were made using a tissue chopper (McIlwain) and transferred into 32 °C ACSF containing 124 mM NaCl, 3.5 mM KCl, 1.3 mM NaH2PO4, 26 mM NaHCO3, 10 mM glucose, 2 mM CaCl2, 1 mM MgSO4 and 1.8 mM ascorbate. All slices were recovered in 95% O2/5% CO2 for at least 1.5 h before experimentation.
For electrophysiological slice recording experiments, a glass micropipette (typical resistance of 0.4–0.8 megaohm when filled with ACSF) was used to record fEPSPs from the CA1 dendritic layer in response to stimulation of the Schaffer collaterals using a tungsten bipolar electrode. Slices were continually perfused with 30.5 °C ± 0.5 °C ACSF at a rate of 2.5 ± 0.5 ml min^−1 during recordings. Stimuli were delivered every 20 s, and three responses (1 min) were averaged for analysis. Data were analysed using WinLTP software with slope calculated as the initial rise from 10 to 60% of the response peak. Input–output curves were generated by increasing the stimulus intensity at a constant interval until a maximum response or population spike was noted to determine stimulation that elicits 50% of maximum slope. […] A stable baseline was acquired for a minimum of 20 min at 50% maximum slope before high-frequency stimulation (HFS; 2 × 100 Hz, 10 s interval) was applied. Responses were recorded for 40 or 60 min after HFS. Change in slope was calculated as a ratio of the average slope of the 20 min baseline (before HFS). Bar graphs of the percentage of fEPSP slope were calculated by averaging the last 10 min time points post-HFS and normalized to baseline.

[2] = test system: CA3–CA1 Schaffer collateral pathway LTP; assay: LTP at CA3–CA1 synapse, field recordings in acute hippocampal slices of WT mice; format: cell-based, mouse; details: for LTP quantification (fEPSP slope, last 10 min post-HFS, normalized to baseline): 15 min before HFS to 5 min after
JAK3(h) = JAK3(h) (Homo sapiens, UniProt P52333); assay: Kinase selectivity panel (residual activity at 1 μM); format: biochemical; details: inhibitor at 1 μM; read-out: residual kinase activity in % of maximal activity
CaMKIIβ(h) = CaMKIIβ(h) (Homo sapiens, UniProt Q13554); assay: as above; format: biochemical; details: inhibitor at 1 μM; read-out: residual kinase activity in % of maximal activity
cKit(h) = cKit(h) (Homo sapiens, UniProt P10721); assay: as above; format: biochemical; details: inhibitor at 1 μM; read-out: residual kinase activity in % of maximal activity
FGFR1(h) = FGFR1(h) (Homo sapiens, UniProt P11362); assay: as above; format: biochemical; details: inhibitor at 1 μM; read-out: residual kinase activity in % of maximal activity
PDK1(h) = PDK1(h) (Homo sapiens, UniProt O15530); assay: as above; format: biochemical; details: inhibitor at 1 μM; read-out: residual kinase activity in % of maximal activity
PKG1α(h) = PKG1α(h) (Homo sapiens, UniProt Q13976); assay: as above; format: biochemical; details: inhibitor at 1 μM; read-out: residual kinase activity in % of maximal activity
mTOR(h) = mTOR(h) (Homo sapiens, UniProt P42345); assay: as above; format: biochemical; details: inhibitor at 1 μM; read-out: residual kinase activity in % of maximal activity
Arg(h) = Arg(h) (Homo sapiens, UniProt P42684); assay: as above; format: biochemical; details: inhibitor at 1 μM; read-out: residual kinase activity in % of maximal activity
JNK2α2(h) = JNK2α2(h) (Homo sapiens, UniProt P45984); assay: as above; format: biochemical; details: inhibitor at 1 μM
FAK(h) = FAK(h) (Homo sapiens, UniProt Q05397); assay: as above; format: biochemical; details: inhibitor at 1 μM; read-out: residual kinase activity in % of maximal activity
[3] = test system: GFP–CaMKII K42M in rat hippocampal neurons; assay: cLTP-induced CaMKII synaptic enrichment in dissociated hippocampal cultures (GFP–CaMKII K42M); format: cell-based; details: sheet 4e

Sequence of CaMKIIβ(h) (Q13554 whole entry): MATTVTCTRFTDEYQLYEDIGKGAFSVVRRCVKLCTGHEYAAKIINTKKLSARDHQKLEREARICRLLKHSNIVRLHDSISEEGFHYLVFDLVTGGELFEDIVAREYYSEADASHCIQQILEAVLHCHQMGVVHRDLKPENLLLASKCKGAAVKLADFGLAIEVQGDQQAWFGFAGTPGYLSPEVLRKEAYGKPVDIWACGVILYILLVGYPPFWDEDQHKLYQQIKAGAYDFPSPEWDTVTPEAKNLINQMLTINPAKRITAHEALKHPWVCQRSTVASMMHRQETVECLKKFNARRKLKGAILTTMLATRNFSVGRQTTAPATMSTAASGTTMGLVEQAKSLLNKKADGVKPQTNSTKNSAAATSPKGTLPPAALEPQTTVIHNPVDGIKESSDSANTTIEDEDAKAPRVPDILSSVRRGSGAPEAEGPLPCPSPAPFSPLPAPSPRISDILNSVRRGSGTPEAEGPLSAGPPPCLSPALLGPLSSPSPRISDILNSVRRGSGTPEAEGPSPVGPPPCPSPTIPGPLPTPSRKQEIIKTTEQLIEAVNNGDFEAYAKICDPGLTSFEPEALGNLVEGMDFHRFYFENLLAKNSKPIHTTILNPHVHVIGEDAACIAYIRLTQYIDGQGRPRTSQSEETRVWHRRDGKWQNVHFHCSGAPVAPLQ
Sequence of JAK3(h) (P52333 whole entry): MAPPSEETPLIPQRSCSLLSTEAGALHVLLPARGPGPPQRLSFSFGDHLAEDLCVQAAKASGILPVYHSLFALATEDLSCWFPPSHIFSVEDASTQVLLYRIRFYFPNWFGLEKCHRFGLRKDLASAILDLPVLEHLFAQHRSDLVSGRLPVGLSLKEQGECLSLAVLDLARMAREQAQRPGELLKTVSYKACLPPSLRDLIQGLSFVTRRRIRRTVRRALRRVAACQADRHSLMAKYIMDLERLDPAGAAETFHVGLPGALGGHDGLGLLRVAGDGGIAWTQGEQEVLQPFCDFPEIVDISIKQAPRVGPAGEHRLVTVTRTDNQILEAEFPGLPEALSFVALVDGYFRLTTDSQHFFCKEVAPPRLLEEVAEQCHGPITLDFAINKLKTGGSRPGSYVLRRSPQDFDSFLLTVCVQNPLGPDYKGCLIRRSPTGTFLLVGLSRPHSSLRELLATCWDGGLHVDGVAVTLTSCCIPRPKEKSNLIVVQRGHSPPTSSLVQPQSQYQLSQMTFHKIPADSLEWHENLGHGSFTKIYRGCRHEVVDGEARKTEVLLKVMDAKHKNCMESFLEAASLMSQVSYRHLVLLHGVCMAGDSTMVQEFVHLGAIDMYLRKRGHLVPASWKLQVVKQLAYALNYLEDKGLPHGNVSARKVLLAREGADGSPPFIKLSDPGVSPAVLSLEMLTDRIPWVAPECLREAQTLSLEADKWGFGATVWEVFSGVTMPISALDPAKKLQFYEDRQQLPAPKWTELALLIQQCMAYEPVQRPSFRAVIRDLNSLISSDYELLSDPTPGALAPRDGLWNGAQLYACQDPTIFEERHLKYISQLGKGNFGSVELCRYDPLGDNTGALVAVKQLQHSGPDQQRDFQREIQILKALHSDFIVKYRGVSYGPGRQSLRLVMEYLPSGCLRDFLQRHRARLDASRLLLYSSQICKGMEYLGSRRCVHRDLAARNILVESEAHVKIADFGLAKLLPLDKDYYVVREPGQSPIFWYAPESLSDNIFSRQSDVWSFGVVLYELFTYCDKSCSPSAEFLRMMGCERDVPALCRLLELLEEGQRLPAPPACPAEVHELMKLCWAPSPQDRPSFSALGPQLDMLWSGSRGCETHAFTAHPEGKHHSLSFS
Sequence of ROCK-II(h) (O75116 whole entry): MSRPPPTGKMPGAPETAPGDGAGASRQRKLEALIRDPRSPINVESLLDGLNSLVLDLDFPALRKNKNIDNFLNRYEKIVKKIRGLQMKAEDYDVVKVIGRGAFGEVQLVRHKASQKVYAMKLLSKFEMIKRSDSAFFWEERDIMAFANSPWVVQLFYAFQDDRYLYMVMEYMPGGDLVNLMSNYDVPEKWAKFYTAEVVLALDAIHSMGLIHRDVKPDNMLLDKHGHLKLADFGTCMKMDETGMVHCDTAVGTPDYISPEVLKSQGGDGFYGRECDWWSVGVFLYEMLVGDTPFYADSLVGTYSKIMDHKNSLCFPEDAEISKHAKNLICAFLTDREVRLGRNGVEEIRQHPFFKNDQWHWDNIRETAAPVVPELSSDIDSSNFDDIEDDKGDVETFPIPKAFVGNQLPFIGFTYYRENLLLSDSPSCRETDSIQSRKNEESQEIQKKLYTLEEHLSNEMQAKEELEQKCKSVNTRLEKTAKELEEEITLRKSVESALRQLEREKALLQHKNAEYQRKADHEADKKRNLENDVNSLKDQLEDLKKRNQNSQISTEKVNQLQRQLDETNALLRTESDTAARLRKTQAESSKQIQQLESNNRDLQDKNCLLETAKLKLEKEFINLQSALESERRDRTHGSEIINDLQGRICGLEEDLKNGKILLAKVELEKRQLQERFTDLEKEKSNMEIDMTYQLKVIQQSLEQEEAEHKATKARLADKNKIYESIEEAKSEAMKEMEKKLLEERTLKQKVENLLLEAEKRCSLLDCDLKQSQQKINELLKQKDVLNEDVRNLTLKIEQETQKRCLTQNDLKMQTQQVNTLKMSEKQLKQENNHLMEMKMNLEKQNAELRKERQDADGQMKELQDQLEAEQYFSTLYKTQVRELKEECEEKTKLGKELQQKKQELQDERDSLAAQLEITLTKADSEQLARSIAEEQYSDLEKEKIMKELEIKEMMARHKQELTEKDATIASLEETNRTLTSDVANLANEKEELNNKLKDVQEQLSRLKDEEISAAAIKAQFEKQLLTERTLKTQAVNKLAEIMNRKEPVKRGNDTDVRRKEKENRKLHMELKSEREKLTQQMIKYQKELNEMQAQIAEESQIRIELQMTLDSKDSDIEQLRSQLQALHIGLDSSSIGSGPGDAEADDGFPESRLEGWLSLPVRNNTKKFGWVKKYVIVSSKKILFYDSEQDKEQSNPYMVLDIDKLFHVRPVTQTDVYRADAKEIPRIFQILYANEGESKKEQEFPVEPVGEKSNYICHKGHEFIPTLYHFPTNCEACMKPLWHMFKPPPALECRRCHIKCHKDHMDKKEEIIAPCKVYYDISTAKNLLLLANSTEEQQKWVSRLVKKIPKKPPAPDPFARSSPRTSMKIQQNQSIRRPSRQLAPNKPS
Sequence of PKG1α(h) (Q13976 whole entry): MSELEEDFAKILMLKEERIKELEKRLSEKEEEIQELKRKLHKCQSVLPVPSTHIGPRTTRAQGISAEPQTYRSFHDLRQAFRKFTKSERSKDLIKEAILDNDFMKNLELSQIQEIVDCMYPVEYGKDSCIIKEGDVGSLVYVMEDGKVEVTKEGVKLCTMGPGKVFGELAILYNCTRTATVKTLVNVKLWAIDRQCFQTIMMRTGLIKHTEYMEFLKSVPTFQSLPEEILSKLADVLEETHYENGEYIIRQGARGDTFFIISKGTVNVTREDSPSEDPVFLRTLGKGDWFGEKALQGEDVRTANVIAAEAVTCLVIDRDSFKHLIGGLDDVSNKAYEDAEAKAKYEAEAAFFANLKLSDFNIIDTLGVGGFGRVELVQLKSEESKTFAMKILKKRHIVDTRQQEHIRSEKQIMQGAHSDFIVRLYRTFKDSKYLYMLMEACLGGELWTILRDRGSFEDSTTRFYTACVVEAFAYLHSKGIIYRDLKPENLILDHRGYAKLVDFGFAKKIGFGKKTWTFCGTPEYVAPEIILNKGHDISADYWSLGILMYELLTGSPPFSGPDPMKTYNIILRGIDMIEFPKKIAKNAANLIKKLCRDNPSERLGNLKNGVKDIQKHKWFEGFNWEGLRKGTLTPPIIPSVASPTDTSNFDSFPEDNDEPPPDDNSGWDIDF
Sequence of Arg(h) (P42684 whole entry): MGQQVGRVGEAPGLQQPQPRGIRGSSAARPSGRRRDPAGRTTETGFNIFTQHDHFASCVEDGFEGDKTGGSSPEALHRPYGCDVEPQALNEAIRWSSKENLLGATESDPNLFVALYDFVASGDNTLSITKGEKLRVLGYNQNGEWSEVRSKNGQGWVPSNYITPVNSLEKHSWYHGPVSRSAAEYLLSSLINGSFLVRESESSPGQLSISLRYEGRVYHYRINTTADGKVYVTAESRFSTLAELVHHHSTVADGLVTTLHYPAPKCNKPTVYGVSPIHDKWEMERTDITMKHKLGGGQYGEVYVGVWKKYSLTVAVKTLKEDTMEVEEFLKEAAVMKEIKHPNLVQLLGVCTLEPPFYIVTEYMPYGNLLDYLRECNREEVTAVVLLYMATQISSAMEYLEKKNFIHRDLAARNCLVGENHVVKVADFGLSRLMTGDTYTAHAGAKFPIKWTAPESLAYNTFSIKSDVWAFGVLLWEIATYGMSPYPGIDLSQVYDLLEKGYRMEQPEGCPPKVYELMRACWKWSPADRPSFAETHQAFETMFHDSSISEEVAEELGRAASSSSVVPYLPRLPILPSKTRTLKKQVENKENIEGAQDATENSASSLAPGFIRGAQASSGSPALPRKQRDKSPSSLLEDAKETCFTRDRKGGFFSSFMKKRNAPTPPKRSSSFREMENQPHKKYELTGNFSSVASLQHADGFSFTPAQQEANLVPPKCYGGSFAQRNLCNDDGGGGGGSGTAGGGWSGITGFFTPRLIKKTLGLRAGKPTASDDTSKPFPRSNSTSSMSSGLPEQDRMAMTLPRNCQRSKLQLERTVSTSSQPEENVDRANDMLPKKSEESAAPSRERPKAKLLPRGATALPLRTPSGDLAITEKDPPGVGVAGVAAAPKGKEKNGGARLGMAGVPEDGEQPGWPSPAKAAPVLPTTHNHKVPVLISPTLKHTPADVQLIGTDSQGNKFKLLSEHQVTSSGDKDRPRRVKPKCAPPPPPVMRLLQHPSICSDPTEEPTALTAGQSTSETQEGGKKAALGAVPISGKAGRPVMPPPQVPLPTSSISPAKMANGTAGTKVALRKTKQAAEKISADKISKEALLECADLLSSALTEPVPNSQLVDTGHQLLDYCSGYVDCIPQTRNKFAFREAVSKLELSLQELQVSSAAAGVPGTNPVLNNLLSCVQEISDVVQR

SMILES: NCCNc1cccc(-c2ccnc3[nH]c4ccccc4c23)c1 [AS283]
- remaining activity at 1 µM (Ret(h)): 44%
- remaining activity at 1 µM (ROCK-II(h)): 77%
- effect on LTP in slices from T286A mutant mice ([1]; AS283 10 μM): enabled LTP
- LTP quantification (fEPSP slope normalized to baseline) ([1]; T286A mice, 10 μM AS283 during LTP induction): 173.525% and 142.167% and 174.092% and 153.624%
- fEPSP slope (normalized to baseline) ([1]; Time (min) 1.33333): 226.574 and 276.052 and 180.946 and 150.731
- fEPSP slope (normalized to baseline) ([1]; Time (min) 2.33333): 192.365 and 206.349 and 186.037 and 149.446
- fEPSP slope (normalized to baseline) ([1]; Time (min) 3.33333): 182.945 and 175.983 and 184.471 and 147.196
- fEPSP slope (normalized to baseline) ([1]; Time (min) 4.33333): 177.987 and 162.181 and 176.442 and 135.626
- fEPSP slope (normalized to baseline) ([1]; Time (min) 5.33333): 158.156 and 152.519 and 169.979 and 137.876
- fEPSP slope (normalized to baseline) ([1]; Time (min) 6.33333): 150.223 and 154.589 and 168.609 and 152.017
- fEPSP slope (normalized to baseline) ([1]; Time (min) 7.33333): 124.442 and 151.829 and 171.154 and 133.698
- fEPSP slope (normalized to baseline) ([1]; Time (min) 8.33333): 102.628 and 144.237 and 169 and 134.983
- fEPSP slope (normalized to baseline) ([1]; Time (min) 9.33333): 104.115 and 145.618 and 173.309 and 134.983
- fEPSP slope (normalized to baseline) ([1]; Time (min) 10.3333): 122.955 and 140.787 and 178.596 and 135.626
- fEPSP slope (normalized to baseline) ([1]; Time (min) 11.3333): 100.149 and 132.505 and 172.721 and 133.055
- fEPSP slope (normalized to baseline) ([1]; Time (min) 12.3333): 126.921 and 132.505 and 175.267 and 134.662
- fEPSP slope (normalized to baseline) ([1]; Time (min) -1): 91.7204 and 91.0973 and 91.6479 and 102.523
- fEPSP slope (normalized to baseline) ([1]; Time (min) -2): 90.7288 and 96.6184 and 93.802 and 102.844
- fEPSP slope (normalized to baseline) ([1]; Time (min) -3): 103.619 and 106.97 and 89.298 and 98.6662
- fEPSP slope (normalized to baseline) ([1]; Time (min) -4): 104.115 and 88.3368 and 91.2562 and 100.916
- fEPSP slope (normalized to baseline) ([1]; Time (min) -5): 91.7204 and 91.0973 and 97.7186 and 101.237
- fEPSP slope (normalized to baseline) ([1]; Time (min) -6): 96.1825 and 96.6184 and 96.7395 and 100.273
- fEPSP slope (normalized to baseline) ([1]; Time (min) -7): 87.2583 and 94.548 and 98.5019 and 100.916
- fEPSP slope (normalized to baseline) ([1]; Time (min) -8): 96.1825 and 95.9282 and 99.6769 and 97.7021
- fEPSP slope (normalized to baseline) ([1]; Time (min) -9): 98.6614 and 96.6184 and 102.614 and 101.88
- fEPSP slope (normalized to baseline) ([1]; Time (min) -10): 90.7288 and 91.0973 and 99.0894 and 97.0593
- fEPSP slope (normalized to baseline) ([1]; Time (min) -11): 103.124 and 102.139 and 101.439 and 98.9876
- fEPSP slope (normalized to baseline) ([1]; Time (min) -12): 109.073 and 120.083 and 100.656 and 94.4882
- fEPSP slope (normalized to baseline) ([1]; Time (min) -13): 105.602 and 105.59 and 103.398 and 96.4165
- LTP quantification (fEPSP slope, last 10 min post-HFS, normalized to baseline) ([2]; AS283 10uM): 152.979% and 135.393% and 153.277%
- fEPSP slope (normalized to baseline) ([2]; AS283 10uM, Time (min) -4): 104.452% and 102.587% and 97.9392%
- fEPSP slope (normalized to baseline) ([2]; AS283 10uM, Time (min) -5): 97.455% and 97.2289% and 102.244%
- fEPSP slope (normalized to baseline) ([2]; AS283 10uM, Time (min) -6): 99.4541% and 99.1179% and 105.524%
- fEPSP slope (normalized to baseline) ([2]; AS283 10uM, Time (min) -7): 101.753% and 102.819% and 102.999%
- fEPSP slope (normalized to baseline) ([2]; AS283 10uM, Time (min) -8): 95.5559% and 104.449% and 104.231%
- fEPSP slope (normalized to baseline) ([2]; AS283 10uM, Time (min) -9): 92.9571% and 97.0204% and 97.7789%
- fEPSP slope (normalized to baseline) ([2]; AS283 10uM, Time (min) -10): 99.8539% and 98.6506% and 100.547%
- fEPSP slope (normalized to baseline) ([2]; AS283 10uM, Time (min) -11): 103.952% and 101.834% and 101.778%
- fEPSP slope (normalized to baseline) ([2]; AS283 10uM, Time (min) -12): 101.553% and 101.652% and 98.229%
- fEPSP slope (normalized to baseline) ([2]; AS283 10uM, Time (min) -13): 102.353% and 99.9177% and 99.6311%
- LTP quantification (fEPSP slope, last 10 min post-HFS, normalized to baseline) ([2]; AS283 30uM): 160.389% and 108.532% and 181.434% and 162.892% and 172.846% and 114.329% and 178.329%
- fEPSP slope (normalized to baseline) ([2]; AS283 30uM, Time (min) -4): 104.315% and 98.2615% and 101.701% and 97.3586% and 99.2226% and 91.7266% and 101.169%
- fEPSP slope (normalized to baseline) ([2]; AS283 30uM, Time (min) -5): 101.784% and 110.1% and 99.6307% and 92.306% and 111.307% and 95.4361% and 105.648%
- fEPSP slope (normalized to baseline) ([2]; AS283 30uM, Time (min) -6): 100.097% and 110.1% and 101.96% and 97.1642% and 103.039% and 95.0989% and 110.591%
- fEPSP slope (normalized to baseline) ([2]; AS283 30uM, Time (min) -7): 104.877% and 108.522% and 113.432% and 111.35% and 97.9505% and 103.53% and 108.737%
- fEPSP slope (normalized to baseline) ([2]; AS283 30uM, Time (min) -8): 104.034% and 98.6561% and 118.004% and 96.7756% and 91.5901% and 101.506% and 110.436%
- fEPSP slope (normalized to baseline) ([2]; AS283 30uM, Time (min) -9): 106.283% and 106.154% and 107.653% and 91.3344% and 103.039% and 101.844% and 106.575%
- fEPSP slope (normalized to baseline) ([2]; AS283 30uM, Time (min) -10): 103.19% and 102.997% and 101.442% and 97.5529% and 105.583% and 95.4361% and 107.965%
- fEPSP slope (normalized to baseline) ([2]; AS283 30uM, Time (min) -11): 100.66% and 97.0777% and 100.58% and 104.937% and 103.675% and 93.0755% and 112.753%
- fEPSP slope (normalized to baseline) ([2]; AS283 30uM, Time (min) -12): 100.379% and 102.602% and 99.6307% and 99.8848% and 96.6784% and 98.4712% and 119.858%
- fEPSP slope (normalized to baseline) ([2]; AS283 30uM, Time (min) -13): 101.784% and 99.0508% and 93.2474% and 96.5813% and 96.6784% and 98.8084% and 114.606%
- effect on LTP induction in WT mice ([2]; AS283 10 or 30 µM): failed to block
- remaining activity at 1 µM (JAK3(h)): 92%
- remaining activity at 1 µM (CaMKIIβ(h)): 5%
- remaining activity at 1 µM (cKit(h)): 50%
- remaining activity at 1 µM (FGFR1(h)): 58%
- remaining activity at 1 µM (PDK1(h)): 78%
- remaining activity at 1 µM (PKG1α(h)): 48%
- remaining activity at 1 µM (mTOR(h)): 115%
- remaining activity at 1 µM (Arg(h)): 96%
- residual kinase activity in % of maximal activity (JNK2α2(h)): 82%
- remaining activity at 1 µM (FAK(h)): 68%

SMILES: CC(C)(C)n1nc(Cc2cccc3ccccc23)c2c(N)ncnc21 [NM-PP1]
- CaMKII synaptic enrichment ([3]; NMPP1, before cLTP, individual neurons): 1.065 and 0.7915 and 0.7418 and 0.4255 and 0.8744 and 0.8871
- CaMKII synaptic enrichment ([3]; after cLTP in NMPP1, individual neurons): 1.554 and 1.155 and 0.8796 and 0.5587 and 1.358 and 1.0618
